Source: patent US7226941B2, “Compound for treating angiogenesis” (HIF Bio, Inc., priority 2003, dated 2007)

Experiments:
Format in all cases: cell-based, human
HIF = HIF activity assay (EPO enhancer luciferase reporter); conditions: Hep3B, 16 h at 1% O2 (FIGS. 4a-4i)
Procedure: The synthetic DNA coding the HIF-binding enhancer region of the EPO gene, 5-[…] ATCT-3 (SEQ. ID NO. 1), was inserted into the pGL3 promoter plasmid (Promega). To assay the HIF activity, Hep3B cells were cotransfected with the luciferase reporter gene and the plasmid cytomegalovirus-β-gal, using the calcium phosphate method. Transfected cells were split into nine aliquots and incubated for 42 h. After stabilizing, the cells were incubated for 16 h at 20% or 1% O2. They were then lysed and assayed for luciferase activity using a Biocounter M1500 luminometer (Lumac). β-gal assays were performed for normalization of transfection.

Hep3B cells [1] = assay: Cell viability by MTT assay; conditions: 0.5, 1, or 2 μM for 24, 48, or 72 h (FIG. 2)
Procedure: The percentages of viable cells were measured by MTT assay. […] Bars represent the mean of three separate experiments with the upper 95% confidence interval. *: p<0.05 vs. the control.
Compounds of Formula I or II can be evaluated for efficacy using the methods described above. In addition, compounds of the invention have efficacy in a cell viability assay using human cancer cells. The cells are treated with a compound of Formula I or II (at concentrations ranging from 0.5-2 μM) and buffer. Cellular viability is measured at 24, 48, and 72 hours. Treatment with the compound results in a notable decrease in cell viability.
The percentage of viable cells was measured by MTT assay. Cells were plated in 12 well plates. […] Resulting insoluble formazan was dissolved with 0.04 N HCl in isopropanol. Absorbance of purple color of formazan was measured at 570 nm with a spectrophotometer.

HIF-2α = assay: Immunoblotting of HIF-2α protein in hypoxic Hep3B cells; conditions: for inhibition of HIF-2α: hypoxia (1% O2) 18 hours, immunoblot
Procedure: Hep3B hepatoma cells are cultured in α-modified Eagle's medium supplemented with 10% […] fetal bovine serum, 100 units/ml penicillin, and 100 μg/ml streptomycin in a humidified atmosphere containing 5% CO2 at 37° C. Oxygen tension in the incubator is held at either 140 mm Hg (20% O2, v/v, normoxia) or 7 mm Hg (1% O2, v/v, hypoxia). After 24 hour stabilization under normoxic conditions, cells are incubated under normoxic or hypoxic conditions for 18 hours in the presence or in the absence of compounds of the invention. For the immunoblotting of HIF-1α or HIF-2α in cultured cells, 20 μg of extracted proteins are separated on 6.5% SDS/polyacrylamide gels, and then transferred to an Immobilon-P membrane (Millipore). Immobilized proteins are incubated overnight at 4° C. with rat anti-HIF-1α(Chun et al., J Cell Sci 2001 114:4051-4061) or anti-HIF-2α(Novus Biologicals, Littleton, Colo.), diluted 1:5000 in 5% nonfat milk in TBS/0.1% Tween-20 (TTBS). Horseradish peroxidase-conjugated anti-rat antiserum is used as a secondary antibody and the complexes are visualized using an Enhanced Chemiluminescence Plus Kit (Amersham Pharmacia Biotec).
To induce HIF-1α and HIF-2α proteins, Hep3B cells were incubated in a hypoxic chamber (1% oxygen tension) for 16 hours. […] The amounts of HIF proteins were measured by Western blotting method.

Hep3B hepatoma cells = assay: Cell cycle analysis by FACS (propidium iodide DNA content)
Procedure: FIG. 1a is the FACS data to analyze the cell distribution based on DNA content. […] The cell cycle analysis was performed using a Becton Dickinson FACStar flow cytometer. Cells (1-2×10^6) were plated in 10 cm culture dishes at concentrations determined to yield 70-80% confluence within 24 h. Cells were treated with DMSO or YC-1 and incubated for described time. After incubation, both adherent and floating cells were harvested, washed with 3 ml PBS and resuspended with 200 μl PBS, fixed in 75% ethanol for 30 min on ice. After washing with PBS, cells were labeled with propidium iodide (0.05 mg/ml) in the presence of RNase A (0.5 mg/ml), incubated at room temperature in the dark for 30 min. DNA content was then analyzed using FACStar flow cytometer, and then excited with an argon, water-cooled laser emitting at 488 nm. Propidium iodide was detected using a 630±20 nm band pass filter.
The compounds induce cell cycle arrest as shown in Hep3B liver tumor cells. After application of 1 μM into cultures of Hep3B cells, typically in 48 hours, 28% of the cells were in the G0/G1 phases, 15% in the G2/M phases, 57% in the S phase, and a small percentage were characterized as being in the sub-G1 phase. In the control, typically 60% of the cells were in the G0/G1 phases, 16% in the G2/M phases, and […] in the S-phase.

Hep3B cells [2] = assay: TUNEL assay of apoptosis
Procedure: (§1) The activity of caspase-3 was represented in nmoles of p-nitroaniline released per min and per ml of cellular extract. Bars represent the mean of three separate experiments with the upper 95% confidence interval. *: p<0.05 vs. the control. […] PARP cleavage was analysed by immunoblotting with a mouse anti-PARP antibody. Proteins were visualized by Enhanced Chemiluminescence Plus. The lane C is the control. […] PARP is essential for DNA-replication in the S-phase and its absence leads to apoptosis.
(§2) Referring to FIG. 3a, the caspase-3 activity increased over time to about 5 times the activity in the control after 72 h. […] Inactivation of PARP leads to cell apoptosis. PARP protein was analyzed using Western blotting with anti-PARP antibody (BIOMOL Research Laboratories, Inc), diluted 1:5000. […] For quantification of apoptosis at single cell level, based on labeling of DNA strand breaks, Terminal deoxynucleotidyl Transferase-mediated dUTP Nick End Labeling (TUNEL) assay was performed according to the manufacturer's protocol (In Situ Cell Death Detection Kit; TMR Red; Roche Diagnostics GmbH, Mannheim, Germany). It is a method for detecting the 3′—OH ends of DNA exposed during the internucleosomal cleavage that occurs during apoptosis. Incorporation of fluorescein-dUTP allows detection by FACS. […]

PARP = PARP cleavage by immunoblotting; conditions: 1, 2 μM for 90 h, Hep3B (FIG. 3b)
Procedure: as §1, §2

HIF-1α = assay: Immunoblotting of HIF-1α protein in hypoxic Hep3B cells; conditions: hypoxia (1% O2) 18 hours, immunoblot
Procedure: Hep3B hepatoma cells are cultured in α-modified Eagle's medium supplemented with 10% heat-activated fetal bovine serum, 100 units/ml penicillin, and 100 μg/ml streptomycin in a humidified atmosphere containing 5% CO2 at 37° C. Oxygen tension in the incubator is held at either 140 mm Hg (20% O2, v/v, normoxia) or 7 mm Hg (1% O2, v/v, hypoxia). After 24 hour stabilization under normoxic conditions, cells are incubated under normoxic or hypoxic conditions for 18 hours in the presence or in the absence of compounds of the invention. For the immunoblotting of HIF-1α or HIF-2α in cultured cells, 20 μg of extracted proteins are separated on 6.5% SDS/polyacrylamide gels, and then transferred to an Immobilon-P membrane (Millipore). Immobilized proteins are incubated overnight at 4° C. with rat anti-HIF-1α(Chun et al., J Cell Sci 2001 114:4051-4061) or anti-HIF-2α(Novus Biologicals, Littleton, Colo.), diluted 1:5000 in 5% nonfat milk in TBS/0.1% Tween-20 (TTBS). Horseradish peroxidase-conjugated anti-rat antiserum is used as a secondary antibody and the complexes are visualized using an Enhanced Chemiluminescence Plus Kit (Amersham Pharmacia Biotec).

| HIF activity (luciferase reporter) (HIF) | SMILES | cell viability (Hep3B cells [1]) | expression of HIF-2α protein (HIF-2α; 1% oxygen 16 hours, 0.3 to 10 μg/ml, Western blotting (FIGS. 4a-4i)) | percentage of cells in the S-phase over time (FIG. 1) (Hep3B hepatoma cells; Hep3B cells, time after application) | dose dependence of the cell cycle (S-phase) arrest (Hep3B hepatoma cells; Hep3B cultures) | effect on cell cycle (FIG. 1) (Hep3B hepatoma cells; Hep3B hepatoma cells) | percentage of TUNEL-positive cells (Hep3B cells [2]; 1, 2 μM for 90 h, Hep3B (FIG. 3c)) | percentage of TUNEL-positive cells with caspase-3 inhibitor (Hep3B cells [2]; caspase-3 inhibitor Ac-DEVD-CHO pre-treated 1 h before YC-1) | amount of the 89 kDa fragment of PARP (PARP) | inhibition of HIF-2α (HIF-2α) | inhibition of HIF-1α (HIF-1α) |
| --- | --- | --- | --- | --- | --- | --- | --- | --- | --- | --- | --- |
| effectively reduced | OCc1ccc(-c2nn(Cc3ccccc3)c3ccccc23)o1 [YC-1, 3-(5′-hydroxymethyl-2′-furyl)-1-benzylindazole] | decreased by YC-1, dose-dependently and time-dependently | effectively reduced | steadily increased with time after application | dose dependent up to 5 μM | S-phase arrest | increased dose-dependently | decreased significantly | increased when the YC-1 dose was doubled |  |  |
|  | CC(C)n1nc(-c2ccc(CO)o2)c2ccccc21 [{5-[1-(prop-2-yl)-1H-indazol-3-yl]-furan-2-yl}-methanol] |  |  |  |  |  |  |  |  | strong inhibitors | strong inhibitors |
|  | OCc1ccc(-n2cnc3ccccc32)o1 [{5-[1H-benzimidazol-1-yl]-furan-2-yl}-methanol] |  |  |  |  |  |  |  |  | strong inhibitors | strong inhibitors |
